Structures can show the parent of a compound that is named as a salt.
What follows are compounds tested on HMOX1 (assay: HMOX1 Protein Assay (immunostaining of HO-1 in NHLF cells, GE InCell 1000)). Details: Homo sapiens, fold change above DMSO treated cells, 5 μM compound, 16 h.
Format: cell-based
Outline: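 NHLF cells seeded overnight in FGM-2, then exposed to compound or DMSO vehicle for 16 h, fixed, and immunostained for HO-1 with Hoechst nuclear counterstain; imaged on InCell 1000. Values are fold change over DMSO-treated cells, generally at 5 μM (0.8% DMSO), with asterisked entries at 3 μM.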
`Cn1c(Nc2nc3ccc(OC(F)(F)F)cc3s2)nc2cc(C(=O)NCCC(=O)O)ccc21` [Example 98, 3-{[2-(6-Trifluoromethoxy-benzothiazol-2-ylamino)-1-methyl-1H-benzimidazole-5-carbonyl]-amino}-propionic acid] gave a fold induction at 5 µM of 13.8.
`COC(=O)c1ccc2c(c1)nc(Nc1nc3cc(OC(F)(F)F)ccc3s1)n2C` [Example 99, 1-Methyl-2-(5-trifluoromethoxy-benzothiazol-2-ylamino)-1H-benzoimidazole-5-carboxylic acid methyl ester] gave a fold induction at 5 µM of 8.5.
In the case of `CC(=O)NCCNC(=O)c1ccc2c(c1)nc(Nc1nc3ccc(OC(F)(F)F)cc3s1)n2C` [Example 100, 1-Methyl-2-(6-trifluoromethoxy-benzothiazol-2-ylamino)-1H-benzoimidazole-5-carboxylic acid (2-acetylamino-ethyl)-amide], the fold induction at 5 µM is reported as 25.9.
For `CSCCNC(=O)c1ccc2c(c1)nc(Nc1nc3ccc(OC(F)(F)F)cc3s1)n2C` [Example 101, 1-Methyl-2-(6-trifluoromethoxy-benzothiazol-2-ylamino)-1H-benzoimidazole-5-carboxylic acid (2-methylsulfanyl-ethyl)-amide], the fold induction at 5 µM was 11.2.
`Cn1c(Nc2nc3ccc(OC(F)(F)F)cc3s2)nc2cc(C(=O)NCCS(C)(=O)=O)ccc21` [Example 102, 1-Methyl-2-(6-trifluoromethoxy-benzothiazol-2-ylamino)-1H-benzoimidazole-5-carboxylic acid (2-methanesulfonyl-ethyl)-amide] was tested, and the fold induction at 5 µM was 22.6.
For `Cn1c(Nc2nc3ccc(OC(F)(F)F)cc3s2)nc2cc(C(=O)NCCNC(=O)OC(C)(C)C)ccc21` [Example 103, (2-{[1-Methyl-2-(6-trifluoromethoxy-benzothiazol-2-ylamino)-1H-benzoimidazole-5-carbonyl]-amino}-ethyl)-carbamic acid tert-butyl ester], the fold induction at 5 µM was 9.
`Cn1c(Nc2nc3ccc(OC(F)(F)F)cc3s2)nc2cc(C(=O)NCCN)ccc21` [Example 104, 1-Methyl-2-(6-trifluoromethoxy-benzothiazol-2-ylamino)-1H-benzoimidazole-5-carboxylic acid (2-amino-ethyl)-amide hydrochloride] showed a fold induction at 5 µM of 16.3.
Work on `CNCCNC(=O)c1ccc2c(c1)nc(Nc1nc3ccc(OC(F)(F)F)cc3s1)n2C` [Example 105, 1-Methyl-2-(6-trifluoromethoxy-benzothiazol-2-ylamino)-1H-benzoimidazole-5-carboxylic acid (2-methylamino-ethyl)-amide] yielded a fold induction at 5 µM of 17.5.
In the case of `CN(C)N(C)C(=O)c1ccc2c(c1)nc(Nc1nc3ccc(OC(F)(F)F)cc3s1)n2C` [Example 106, 1-Methyl-2-(6-trifluoromethoxy-benzothiazol-2-ylamino)-1H-benzimidazole-5-carboxylic acid trimethylhydrazide], the fold induction at 5 µM is reported as 23.8.
`CCSCCNC(=O)c1ccc2c(c1)nc(Nc1nc3ccc(OC(F)(F)F)cc3s1)n2C` [Example 107, 1-Methyl-2-(6-trifluoromethoxy-benzothiazol-2-ylamino)-1H-benzoimidazole-5-carboxylic acid (2-ethylsulfanyl-ethyl)-amide] gave a fold induction at 5 µM of 18.6.
For `CSCCCNC(=O)c1ccc2c(c1)nc(Nc1nc3ccc(OC(F)(F)F)cc3s1)n2C` [Example 108, 1-Methyl-2-(6-trifluoromethoxy-benzothiazol-2-ylamino)-1H-benzoimidazole-5-carboxylic acid (3-methylsulfanyl-propyl)-amide], the fold induction at 5 µM was 18.3.
With `CCS(=O)(=O)CCNC(=O)c1ccc2c(c1)nc(Nc1nc3ccc(OC(F)(F)F)cc3s1)n2C` [Example 109, 1-Methyl-2-(6-trifluoromethoxy-benzothiazol-2-ylamino)-1H-benzimidazole-5-carboxylic acid (2-ethanesulfonyl-ethyl)-amide] the fold induction at 5 µM was 20.9.
Work on `Cn1c(Nc2nc3ccc(OC(F)(F)F)cc3s2)nc2cc(C(=O)NCCCS(C)(=O)=O)ccc21` [Example 110, 1-Methyl-2-(6-trifluoromethoxy-benzothiazol-2-ylamino)-1H-benzimidazole-5-carboxylic acid (3-methanesulfonyl-propyl)-amide] yielded a fold induction at 5 µM of 26.3.
For `COC(=O)c1ccc2c(c1)nc(Nc1nc3cc(F)ccc3s1)n2C` [Example 111, 2-(5-Fluoro-benzothiazol-2-ylamino)-1-methyl-1H-benzoimidazole-5-carboxylic acid methyl ester], the fold induction at 5 µM was 17.6.
Work on `COC(=O)c1ccc2c(c1)nc(Nc1nc3ccc(F)cc3s1)n2C` [Example 112, 2-(6-Fluoro-benzothiazol-2-ylamino)-1-methyl-1H-benzoimidazole-5-carboxylic acid methyl ester] yielded a fold induction at 5 µM of 17.5.
`COC(=O)c1ccc2c(c1)nc(Nc1nc3ccc(S(C)(=O)=O)cc3s1)n2C` [Example 113, 2-(6-Methanesulfonyl-benzothiazol-2-ylamino)-1-methyl-1H-benzoimidazole-5-carboxylic acid methyl ester] was tested, and the fold induction at 5 µM was 27.6.
With `COC(=O)c1ccc2c(c1)nc(Nc1nc3ccc(C)cc3s1)n2C` [Example 114, 1-Methyl-2-(6-methyl-benzothiazol-2-ylamino)-1H-benzoimidazole-5-carboxylic acid methyl ester] the fold induction at 5 µM was 5.1.
`CNC(=O)c1ccc2c(c1)nc(Nc1nc3cc(OC(F)(F)F)ccc3s1)n2C` [Example 115, 1-Methyl-2-(5-trifluoromethoxy-benzothiazol-2-ylamino)-1H-benzimidazole-5-carboxylic acid methylamide] was tested, and the fold induction at 5 µM was 1.5.
Compound `COCCNC(=O)c1ccc2c(c1)nc(Nc1nc3cc(OC(F)(F)F)ccc3s1)n2C` [Example 116, 1-Methyl-2-(5-trifluoromethoxy-benzothiazol-2-ylamino)-1H-benzimidazole-5-carboxylic acid (2-methoxy-ethyl)-amide] has a fold induction at 5 µM of 22.3.
Work on `Cn1c(Nc2nc3cc(F)ccc3s2)nc2cc(C(=O)O)ccc21` [Example 117, 2-(5-Fluoro-benzothiazol-2-ylamino)-1-methyl-1H-benzimidazole-5-carboxylic acid] yielded a fold induction at 5 µM of 28.8.
For `Cn1c(Nc2nc3ccc(F)cc3s2)nc2cc(C(=O)O)ccc21` [Example 118, 2-(6-Fluoro-benzothiazol-2-ylamino)-1-methyl-1H-benzimidazole-5-carboxylic acid], the fold induction at 5 µM was 14.1.
Work on `Cn1c(Nc2nc3ccc(S(C)(=O)=O)cc3s2)nc2cc(C(=O)O)ccc21` [Example 119, 2-(6-Methanesulfonyl-benzothiazol-2-ylamino)-1-methyl-1H-benzimidazole-5-carboxylic acid] yielded a fold induction at 5 µM of 22.1.
With `Cc1ccc2nc(Nc3nc4cc(C(=O)O)ccc4n3C)sc2c1` [Example 120, 1-Methyl-2-(6-methyl-benzothiazol-2-ylamino)-1H-benzimidazole-5-carboxylic acid] the fold induction at 5 µM was 1.7.
Compound `Cn1c(Nc2nc3ccc(OC(F)(F)F)cc3s2)nc2cc(C(=O)NC3CCS(=O)(=O)C3)ccc21` (stereo not shown) [Example 121, 1-Methyl-2-(6-trifluoromethoxy-benzothiazol-2-ylamino)-1H-benzimidazole-5-carboxylic acid (1,1-dioxo-tetrahydro-1λ^6-thiophen-3-yl)-amide] has a fold induction at 5 µM of 29.6.
Compound `CNC(=O)c1ccc2c(c1)nc(Nc1nc3cc(F)ccc3s1)n2C` [Example 122, 2-(5-Fluoro-benzothiazol-2-ylamino)-1-methyl-1H-benzimidazole-5-carboxylic acid methylamide] has a fold induction at 5 µM of 26.1.
For `COCCNC(=O)c1ccc2c(c1)nc(Nc1nc3cc(F)ccc3s1)n2C` [Example 123, 2-(5-Fluoro-benzothiazol-2-ylamino)-1-methyl-1H-benzimidazole-5-carboxylic acid (2-methoxy-ethyl)-amide], the fold induction at 5 µM was 12.7.
In the case of `CNC(=O)c1ccc2c(c1)nc(Nc1nc3ccc(F)cc3s1)n2C` [Example 124, 2-(6-Fluoro-benzothiazol-2-ylamino)-1-methyl-1H-benzimidazole-5-carboxylic acid methylamide], the fold induction at 5 µM is reported as 22.9.
`COCCNC(=O)c1ccc2c(c1)nc(Nc1nc3ccc(F)cc3s1)n2C` [Example 125, 2-(6-Fluoro-benzothiazol-2-ylamino)-1-methyl-1H-benzimidazole-5-carboxylic acid (2-methoxy-ethyl)-amide] gave a fold induction at 5 µM of 25.9.
`CNC(=O)c1ccc2c(c1)nc(Nc1nc3ccc(S(C)(=O)=O)cc3s1)n2C` [Example 126, 2-(6-Methanesulfonyl-benzothiazol-2-ylamino)-1-methyl-1H-benzimidazole-5-carboxylic acid methylamide] gave a fold induction at 5 µM of 4.6.
`COCCNC(=O)c1ccc2c(c1)nc(Nc1nc3ccc(S(C)(=O)=O)cc3s1)n2C` [Example 127, 2-(6-Methanesulfonyl-benzothiazol-2-ylamino)-1-methyl-1H-benzimidazole-5-carboxylic acid (2-methoxy-ethyl)-amide] gave a fold induction at 5 µM of 12.4.
In the case of `CNC(=O)c1ccc2c(c1)nc(Nc1nc3ccc(C)cc3s1)n2C` [Example 128, 2-(6-Methyl-benzothiazol-2-ylamino)-1-methyl-1H-benzimidazole-5-carboxylic acid methylamide], the fold induction at 5 µM is reported as 32.7.
Compound `COCCNC(=O)c1ccc2c(c1)nc(Nc1nc3ccc(C)cc3s1)n2C` [Example 129, 2-(6-Methyl-benzothiazol-2-ylamino)-1-methyl-1H-benzimidazole-5-carboxylic acid (2-methoxy-ethyl)-amide] has a fold induction at 5 µM of 31.
With `CSCCNC(=O)c1ccc2c(c1)nc(Nc1nc3ccc(S(C)(=O)=O)cc3s1)n2C` [Example 130, 2-(6-Methanesulfonyl-benzothiazol-2-ylamino)-1-methyl-1H-benzimidazole-5-carboxylic acid (2-methylsulfanyl-ethyl)-amide] the fold induction at 5 µM was 5.3.
`Cn1c(Nc2nc3ccc(S(C)(=O)=O)cc3s2)nc2cc(C(=O)NCCS(C)(=O)=O)ccc21` [Example 131, 2-(6-Methanesulfonyl-benzothiazol-2-ylamino)-1-methyl-1H-benzimidazole-5-carboxylic acid (2-methylsulfonyl-ethyl)-amide] was tested, and the fold induction at 5 µM was 6.8.

From patent US8759535B2, “Substituted fused imidazole derivatives, pharmaceutical compositions, and methods of use thereof” (High Point Pharmaceuticals, LLC, priority 2010, dated 2014)
